From US6818622B2 (Darwin Discovery Ltd., priority 1997, dated 2004)

Key:
collagenase-2 (MMP-8) = collagenase-2 (MMP-8) (Homo sapiens, UniProt P22894); assay: MMP inhibition activity fluorimetric assay (Example A), MMP-8; assay type: biochemical; conditions: fluorimetric substrate 10 μM, 37° C.
Description: (§1) The potency of inhibitors of collagenase-1 (MMP-1), collagenase-2 (MMP-8), collagenase-3 (MMP-13), gelatinase-A (MMP-2), gelatinase-B (MMP-9) and stromelysin-1 (MMP-3) is determined using the following procedure:
(§2) Inhibitors are dissolved in dimethyl sulphoxide containing 0.02% β-mercaptoethanol, and serial dilutions are prepared. Activated enzyme is incubated in assay buffer containing 50 mM Tris, pH 7.4, 5 mM CaCl2, 0.002% NaN3 and Brij 35 in the presence and absence of inhibitor. Samples are preincubated at 37° C. for 15 minutes before the addition of the fluorimetric substrate (Mca-Pro-Leu-Gly-Leu-Dpa-Ala-Arg-NH2) to a final concentration of 10 μM.
(§3) The enzyme activity is compared to activity in a control devoid of inhibitor.

[1] = system: L-selectin shedding by peripheral blood mononuclear cells (PBMC); assay: Inhibition of L-selectin shedding (Example C); assay type: cell-based; conditions: 20 min, read-out: Example C: inhibitor concentration effecting 50% inhibition of the shedding of L-selectin, PBMC stimulated with PMA, ELISA
Description: (§4) An assay of L-selectin shedding by peripheral blood mononuclear cells (PBMC) is conducted as follows: PBMC are isolated from buffy coats by standard procedures using Ficoll. A 100 μM solution of the inhibitor being tested or dilutions thereof is incubated for 20 min at 37° C. in an atmosphere of 5% CO2 with 4×10^6/ml PBMC stimulated with PMA. The cells are centrifuged down and the supernatants tested for sL-selectin using a commercially available ELISA kit. The activity in the presence of 100 μM inhibitor or dilutions thereof is compared to activity in a control devoid of inhibitor.

[2] = system: sIL-6R shedding by HL-60 cells; assay: Inhibition of IL-6R shedding (Example E); assay type: cell-based; conditions: Homo sapiens, read-out: Example E: inhibitor concentration effecting 50% inhibition of the shedding of IL-6R; HL-60 cells stimulated with PMA, 24 h, ELISA
Description: as §4, with “sIL-6R” for “L-selectin”, “HL-60” for “peripheral blood mononuclear”, “cells” for “cells (PBMC)”, “24 h” for “20 min”, “2×10^6/ml HL-60 cells” for “4×10^6/ml PBMC”, “sIl-6R” for “sL-selectin”

collagenase-1 (MMP-1) = target: T1, collagenase-1 (MMP-1) (Homo sapiens, UniProt P03956); assay: MMP inhibition activity fluorimetric assay (Example A), MMP-1; assay type: biochemical; conditions: fluorimetric substrate 10 μM, 37° C.
T1 sequence (P03956 100-469): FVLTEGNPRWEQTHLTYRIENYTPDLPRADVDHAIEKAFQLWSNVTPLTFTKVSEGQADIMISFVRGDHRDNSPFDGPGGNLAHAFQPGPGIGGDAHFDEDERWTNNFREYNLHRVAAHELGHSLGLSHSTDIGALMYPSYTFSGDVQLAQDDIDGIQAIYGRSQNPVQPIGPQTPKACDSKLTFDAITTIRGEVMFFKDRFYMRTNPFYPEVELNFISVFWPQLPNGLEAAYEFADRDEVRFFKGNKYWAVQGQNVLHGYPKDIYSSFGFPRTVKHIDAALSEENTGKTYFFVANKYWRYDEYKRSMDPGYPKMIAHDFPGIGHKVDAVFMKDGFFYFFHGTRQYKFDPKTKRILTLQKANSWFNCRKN
Description: as §1, §2, §3

stromelysin-1 (MMP-3) = stromelysin-1 (MMP-3) (Homo sapiens, UniProt P08254); assay: MMP inhibition activity fluorimetric assay (Example A), MMP-3; assay type: biochemical; conditions: fluorimetric substrate 10 μM, 37° C.
Description: as §1, §2, §3

[3] = system: marmoset joints and tendons; assay: Marmoset tendonitis study; assay type: in vivo; conditions: oral dosing at 30 and 100 mg/kg for 3 months; for Plasma levels on repeated plasma sampling: up to 9 h post-dose
Description: Specific examples of compounds showing the desired profile are those of Examples 1 and 2 and cpd. 3 (see below). These three compounds have been tested in the marmoset tendonitis study. This procedure for this study has been defined by Wojtowicz-Praga et al, supra. The study was performed with oral dosing at 30 and 100 mg/kg for 3 months. […] See Hooper et al, supra.

[4] = system: shedding of TNF RII by THP-1 cells (human monocytes); assay: Inhibition of TNF RII shedding (Example F); assay type: cell-based; conditions: read-out: Example F: inhibitor concentration effecting 50% inhibition of the shedding of TNF RII, THP-1 cells stimulated with LPS, 18 hours, ELISA
Description: (§5) After 18 hours the supernatant is assayed for the levels of sTNF RII using a commercially available ELISA kit. The activity in the presence of 0.1 mM inhibitor or dilutions thereof is compared to activity in a control devoid of inhibitor.

gelatinase-B (MMP-9) = gelatinase-B (MMP-9) (Homo sapiens, UniProt P14780); assay: MMP inhibition activity fluorimetric assay (Example A), MMP-9; assay type: biochemical; conditions: fluorimetric substrate 10 μM, 37° C.
Description: as §1, §2, §3

[5] = system: sIL-1RII shedding by PBMC; assay: Inhibition of sIL-1RII shedding (Example D); assay type: cell-based; conditions: read-out: Example D: inhibitor concentration effecting 50% inhibition of the shedding of sIL-1RII; PBMC stimulated with IL-13, 18 h, ELISA
Description: An assay of sIL-1RII shedding by PBMC is conducted as follows: PBMC are isolated from buffy coats by standard procedures using Ficoll. A 100 μM solution of the inhibitor being tested or dilutions thereof are incubated for 18 h at 37° C. in an atmosphere of 5% CO2 with 2×10^6/ml PBMC stimulated with IL-13. The cells are centrifuged down and the supernatants tested for sIL-1RII using a commercially available ELISA kit. The activity in the presence of 100 μM inhibitor or dilutions thereof is compared to activity in a control devoid of inhibitor.

[6] = system: production of TNFα by peripheral blood mononuclear cells (PBMC); assay: Inhibition of TNFα production (Example B); assay type: cell-based; conditions: read-out: Example B: inhibitor concentration effecting 50% inhibition of the production of TNFα; PBMC stimulated with LPS, 18 hours, ELISA
Description: as §5, with “PBMC are isolated from buffy coats by standard procedures using Ficoll. […] After” for “After”, “TNFα” for “sTNF RII”, “100 μM” for “0.1 mM”

collagenase-3 (MMP-13) = collagenase-3 (MMP-13) (Homo sapiens, UniProt P45452); assay: MMP inhibition activity fluorimetric assay (Example A), MMP-13; assay type: biochemical; conditions: fluorimetric substrate 10 μM, 37° C.
Description: as §1, §2, §3

gelatinase-A (MMP-2) = target: T2, gelatinase-A (MMP-2) (Homo sapiens, UniProt P08253); assay: MMP inhibition activity fluorimetric assay (Example A), MMP-2; assay type: biochemical; conditions: fluorimetric substrate 10 μM, 37° C.
T2 sequence (P08253 110-660): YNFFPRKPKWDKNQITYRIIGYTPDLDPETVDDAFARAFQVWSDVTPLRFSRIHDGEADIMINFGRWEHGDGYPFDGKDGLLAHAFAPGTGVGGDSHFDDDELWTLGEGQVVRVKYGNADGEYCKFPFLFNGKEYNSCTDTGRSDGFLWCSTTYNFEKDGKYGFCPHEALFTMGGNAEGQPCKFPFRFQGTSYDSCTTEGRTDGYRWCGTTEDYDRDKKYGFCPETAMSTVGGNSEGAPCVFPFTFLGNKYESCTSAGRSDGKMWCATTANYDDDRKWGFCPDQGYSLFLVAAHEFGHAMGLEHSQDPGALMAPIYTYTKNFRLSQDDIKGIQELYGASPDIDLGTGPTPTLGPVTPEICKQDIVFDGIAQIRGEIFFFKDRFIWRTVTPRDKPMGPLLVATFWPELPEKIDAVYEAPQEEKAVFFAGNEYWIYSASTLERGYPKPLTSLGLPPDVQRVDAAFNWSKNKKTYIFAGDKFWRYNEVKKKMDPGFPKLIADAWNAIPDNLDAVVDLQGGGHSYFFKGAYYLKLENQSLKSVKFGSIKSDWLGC
Description: as §1, §2, §3

gelatinase-B (MMP-9), sequence (P14780 107-707 limits assumed, species assumed): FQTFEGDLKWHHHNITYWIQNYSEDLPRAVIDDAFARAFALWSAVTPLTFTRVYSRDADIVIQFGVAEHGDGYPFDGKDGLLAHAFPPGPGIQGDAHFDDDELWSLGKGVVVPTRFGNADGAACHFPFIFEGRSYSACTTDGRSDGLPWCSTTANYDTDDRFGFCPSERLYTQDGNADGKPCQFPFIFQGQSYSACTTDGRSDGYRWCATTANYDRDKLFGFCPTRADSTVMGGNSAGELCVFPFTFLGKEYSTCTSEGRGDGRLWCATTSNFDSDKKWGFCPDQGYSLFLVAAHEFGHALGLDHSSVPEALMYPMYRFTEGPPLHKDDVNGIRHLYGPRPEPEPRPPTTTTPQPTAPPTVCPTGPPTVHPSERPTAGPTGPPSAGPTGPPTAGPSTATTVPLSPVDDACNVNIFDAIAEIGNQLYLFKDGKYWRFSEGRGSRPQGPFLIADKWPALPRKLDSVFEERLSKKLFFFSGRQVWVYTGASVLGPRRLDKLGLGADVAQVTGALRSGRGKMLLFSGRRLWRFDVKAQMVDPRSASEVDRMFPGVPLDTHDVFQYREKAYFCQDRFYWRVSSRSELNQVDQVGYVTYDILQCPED
collagenase-2 (MMP-8), sequence (P22894 101-467, species assumed): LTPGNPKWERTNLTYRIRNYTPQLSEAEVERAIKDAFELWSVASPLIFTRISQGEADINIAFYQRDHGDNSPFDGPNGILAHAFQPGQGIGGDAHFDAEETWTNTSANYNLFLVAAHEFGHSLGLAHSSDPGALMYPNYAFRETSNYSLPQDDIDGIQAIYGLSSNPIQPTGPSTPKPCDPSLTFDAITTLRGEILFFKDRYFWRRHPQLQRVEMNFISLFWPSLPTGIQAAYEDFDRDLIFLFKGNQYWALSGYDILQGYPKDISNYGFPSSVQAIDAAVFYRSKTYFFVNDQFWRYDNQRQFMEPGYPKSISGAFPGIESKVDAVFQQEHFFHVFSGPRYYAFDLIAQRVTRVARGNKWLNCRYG
stromelysin-1 (MMP-3), sequence (P08254 100-477, species assumed): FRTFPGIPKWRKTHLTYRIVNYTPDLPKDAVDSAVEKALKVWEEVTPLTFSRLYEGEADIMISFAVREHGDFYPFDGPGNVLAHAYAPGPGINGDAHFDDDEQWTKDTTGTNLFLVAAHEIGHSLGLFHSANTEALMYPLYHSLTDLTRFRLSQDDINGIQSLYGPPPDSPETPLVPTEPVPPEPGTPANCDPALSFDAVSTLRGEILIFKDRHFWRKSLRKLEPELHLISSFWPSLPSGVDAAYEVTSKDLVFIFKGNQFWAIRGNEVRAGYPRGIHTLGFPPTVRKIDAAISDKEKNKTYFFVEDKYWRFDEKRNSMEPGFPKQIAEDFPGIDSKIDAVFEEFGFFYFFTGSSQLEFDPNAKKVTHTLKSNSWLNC

Row | SMILES | IC50 (collagenase-2 (MMP-8)) | IC50 [1] | IC50 [2] | IC50 (collagenase-1 (MMP-1)) | IC50 (stromelysin-1 (MMP-3)) | Continuous clinical observation [3] | Histological observation of joints and tendons [3] | Plasma levels on repeated plasma sampling [3] | IC50 [4] | IC50 (gelatinase-B (MMP-9)) | IC50 [5] | IC50 [6] | IC50 (collagenase-3 (MMP-13)) | IC50 (gelatinase-A (MMP-2))
1 | CNC(=O)[C@@H](NC(=O)[C@H](CC(C)C)NC(=O)[C@@H](S)CCCN1C(=O)c2ccccc2C1=O)C(C)(C)C [Cpd. 3, (S)-N-[2-mercapto-5-phthalimido]pentanoyl-L-leucyl-(S)-tert-leucine N-methylamide] | 9 nM | > 50000 nM | > 50000 nM | 28 nM | 179 nM | no adverse effects | no adverse effects on joints and tendons | sustained levels in excess of the enzymes' IC50 | > 50000 nM | 5 nM | > 50000 nM | 10000 nM | 2 nM | 15 nM
2 | CNC(=O)[C@@H](NC(=O)[C@H](CC(C)C)NC(=O)[C@@H](S)CCN1C(=O)CCC1=O)C(C)(C)C [Ex. 1, 2S-[4-(2,5-Dioxopyrrolidin-1-yl)-2S-mercaptobutyrylamino]-4-methylpentanoic Acid (2,2-Dimethyl-1S-methylcarbamoylpropyl)-amide] | 10 nM | > 50000 nM | > 50000 nM | 12 nM | 381 nM | no adverse effects | no adverse effects on joints and tendons | sustained levels in excess of the enzymes' IC50 | > 50000 nM | 53 nM | 38000 nM | > 50000 nM | 4 nM | 130 nM
3 | CNC(=O)[C@@H](NC(=O)[C@H](CC(C)C)NC(=O)[C@@H](S)CCN1C(=O)N(C)C(C)(C)C1=O)C(C)(C)C [Ex. 2, 2S-[2S-Mercapto-4-(3,4,4-trimethyl-2,5-dioxoimidazolidin-1-yl)butyrylamino]-4-methylpentanoic Acid (2,2-Dimethyl-1S-methylcarbamoylpropyl)amide] | 10 nM | > 50000 nM | > 50000 nM | 25 nM | 157 nM | no adverse effects | no adverse effects on joints and tendons | sustained levels in excess of the enzymes' IC50 | > 50000 nM | 25 nM | > 50000 nM | > 50000 nM | 4 nM | 41 nM
